Measured values taken from ChEMBL document CHEMBL1122994, “Effect of structural modification of the hydantoin ring on anticonvulsant activity” (J Med Chem, 1985).
Calls of active or inactive are those of the source. No cut-off for these calls is given here.

Columns and labels:
Mus musculus [1] = assay: Anticonvulsant activity was evaluated by maximal electroshock seizure (MES) test at dose 600 mg/kg; No activity; assay type: functional
Mus musculus [2] = assay: Anticonvulsant activity was evaluated by Neurologic toxicity (the rotarod test) at dose 600 mg/kg; No activity; assay type: functional
Mus musculus [3] = assay: Anticonvulsant activity was evaluated by subcutaneous pentylenetetrazole (Metrazol) (sc Met) seizure test at dose 600 mg/kg; No activity; assay type: functional
Mus musculus [4] = organism: Mus musculus; assay: Effective dose was evaluated by maximal electroshock seizure (MES) test; assay type: functional
Mus musculus [5] = assay: Effective dose was evaluated by subcutaneous pentylenetetrazole (Metrazol) (sc Met) seizure test; NE means not effective; assay type: functional, organism-based
Mus musculus [6] = assay: Anticonvulsant activity was evaluated by maximal electroshock seizure (MES) test at dose 600 mg/kg; 1=Noticeable activity; assay type: functional
Mus musculus [7] = assay: Anticonvulsant activity was evaluated by subcutaneous pentylenetetrazole (Metrazol) (sc Met) seizure test at dose 300 mg/kg; 2=Noticeable activity; assay type: functional
Mus musculus [8] = assay: Effective dose was evaluated by subcutaneous pentylenetetrazole (Metrazol) (sc Met) seizure test; assay type: functional
Mus musculus [9] = assay: Anticonvulsant activity was evaluated by maximal electroshock seizure (MES) test at dose 100 mg/kg; 3=Noticeable activity; assay type: functional
Mus musculus [10] = assay: Anticonvulsant activity was evaluated by Neurologic toxicity (the rotarod test) at dose 300 mg/kg; 2=Noticeable activity; assay type: functional
[11] = Toxic dose was evaluated by neurological toxicity (the rotarod test); assay type: organism-based; details: mouse, in vivo
Mus musculus [12] = assay: Anticonvulsant activity was evaluated by maximal electroshock seizure (MES) test at dose 300 mg/kg; 2=Noticeable activity; assay type: functional
Mus musculus [13] = assay: Anticonvulsant activity was evaluated by subcutaneous pentylenetetrazole (Metrazol) (sc Met) seizure test at dose 100 mg/kg; 3=Noticeable activity; assay type: functional
Mus musculus [14] = assay: Anticonvulsant activity was evaluated by Neurologic toxicity (the rotarod test) at dose 600 mg/kg; 1=Noticeable activity; assay type: functional
Mus musculus [15] = assay: Anticonvulsant activity was evaluated by subcutaneous pentylenetetrazole (Metrazol) (sc Met) seizure test at dose 30 mg/kg; assay type: functional
Mus musculus [16] = assay: Anticonvulsant activity was evaluated by subcutaneous pentylenetetrazole (Metrazol) (sc Met) seizure test at dose 600 mg/kg; 1=Noticeable activity; assay type: functional

## O=C1NC(c2ccccc2)C(O)N1Cc1ccccc1 (centres undefined)
Mus musculus [1]
  Activity: 0
Mus musculus [2]
  Activity: 0
Mus musculus [3]
  Activity: 0

## O=C1NC(=O)C(c2ccccc2)(c2ccccc2)N1 [PHENYTOIN]
Mus musculus [4]
  ED50: 10 mg/kg
Mus musculus [5]
  ED50: inactive

## COc1cccc(CN2C(=O)NC(C)(C)C2O)c1 (centres undefined)
Mus musculus [6]
  Activity: 1
Mus musculus [2]
  Activity: 0
Mus musculus [3]
  Activity: 0

## Oc1nc(-c2ccccc2)cn1-c1ccccc1
Mus musculus [1]
  Activity: 0
Mus musculus [2]
  Activity: 0
Mus musculus [7]
  Activity: 2

## Oc1nccn1-c1ccccc1
Mus musculus [4]
  ED50: 124 mg/kg
Mus musculus [8]
  ED50: 173 mg/kg
Mus musculus [9]
  Activity: 3
Mus musculus [10]
  Activity: 2
Mus musculus [7]
  Activity: 2
[11]
  TD50: 211 mg/kg

## CC1C(=O)N(C)C(=O)N1C (centres undefined)
Mus musculus [1]
  Activity: 0
Mus musculus [2]
  Activity: 0
Mus musculus [7]
  Activity: 2

## O=C1NC(c2ccccc2)C(=O)N1Cc1ccccc1 (centres undefined)
Mus musculus [1]
  Activity: 0
Mus musculus [2]
  Activity: 0
Mus musculus [3]
  Activity: 0

## CN1C(=O)CNC1=O
Mus musculus [1]
  Activity: 0
Mus musculus [2]
  Activity: 0
Mus musculus [3]
  Activity: 0

## CNC(=O)C(N)c1ccccc1 (centres undefined)
Mus musculus [1]
  Activity: 0
Mus musculus [2]
  Activity: 0
Mus musculus [3]
  Activity: 0

## Cn1ccnc1O
Mus musculus [1]
  Activity: 0
Mus musculus [2]
  Activity: 0
Mus musculus [3]
  Activity: 0

## O=C1NC(=O)C(c2ccccc2)N1 (centres undefined)
Mus musculus [4]
  ED50: 156 mg/kg
Mus musculus [8]
  ED50: 109 mg/kg
Mus musculus [12]
  Activity: 2
Mus musculus [13]
  Activity: 3
[11]
  TD50: 399 mg/kg
Mus musculus [14]
  Activity: 1

## CC1NC(=O)N(Cc2ccccc2)C1=O (centres undefined)
Mus musculus [15]
  Activity: 4
Mus musculus [7]
  Activity: 2
Mus musculus [14]
  Activity: 1

## CC(=O)NC(C)C(=O)NCc1ccccc1 (centres undefined)
Mus musculus [4]
  ED50: 77 mg/kg
Mus musculus [9]
  Activity: 3
Mus musculus [3]
  Activity: 0
Mus musculus [14]
  Activity: 1

## CC1NC(=O)N(c2ccccc2)C1=O (centres undefined)
Mus musculus [1]
  Activity: 0
Mus musculus [3]
  Activity: 0
Mus musculus [14]
  Activity: 1

## CNC(=O)C(NC(C)=O)c1ccccc1 (centres undefined)
Mus musculus [1]
  Activity: 0
Mus musculus [2]
  Activity: 0
Mus musculus [3]
  Activity: 0

## O=C1CNC(=O)N1Cc1ccccc1
Mus musculus [4]
  ED50: 65 mg/kg
Mus musculus [8]
  ED50: 114 mg/kg
Mus musculus [9]
  Activity: 3
Mus musculus [10]
  Activity: 2
Mus musculus [7]
  Activity: 2
[11]
  TD50: 224 mg/kg

## CN1C(=O)NC(c2ccccc2)C1O (centres undefined)
Mus musculus [2]
  Activity: 0
Mus musculus [7]
  Activity: 2
Mus musculus [16]
  Activity: 1

## COc1cccc(CCCN2C(=O)NC(C)(C)C2=O)c1
Mus musculus [10]
  Activity: 2
Mus musculus [12]
  Activity: 2
Mus musculus [16]
  Activity: 1

## NC(=O)NC(=O)Cc1ccccc1 [PHENACEMIDE]
Mus musculus [4]
  ED50: 87 mg/kg

## CC(N)C(=O)NCc1ccccc1 (centres undefined)
Mus musculus [10]
  Activity: 2
Mus musculus [12]
  Activity: 2
Mus musculus [3]
  Activity: 0

## CNC(C)CNCc1ccccc1 (centres undefined)
Mus musculus [1]
  Activity: 0
Mus musculus [10]
  Activity: 2
Mus musculus [3]
  Activity: 0

## CNCC(NC)c1ccccc1 (centres undefined)
Mus musculus [1]
  Activity: 0
Mus musculus [10]
  Activity: 2
Mus musculus [3]
  Activity: 0

## Cc1cn(Cc2ccccc2)c(O)n1
Mus musculus [4]
  ED50: 90 mg/kg
Mus musculus [12]
  Activity: 2
Mus musculus [7]
  Activity: 2
[11]
  TD50: 268 mg/kg
Mus musculus [14]
  Activity: 1

## Oc1nc(-c2ccccc2)cn1Cc1ccccc1
Mus musculus [1]
  Activity: 0
Mus musculus [2]
  Activity: 0
Mus musculus [3]
  Activity: 0

## Cn1cc(-c2ccccc2)nc1O
Mus musculus [6]
  Activity: 1
Mus musculus [2]
  Activity: 0
Mus musculus [16]
  Activity: 1

## CC1NC(=O)N(C)C1=O (centres undefined)
Mus musculus [1]
  Activity: 0
Mus musculus [2]
  Activity: 0
Mus musculus [3]
  Activity: 0

## CC1C(O)N(C)C(=O)N1C (centres undefined)
Mus musculus [1]
  Activity: 0
Mus musculus [2]
  Activity: 0
Mus musculus [3]
  Activity: 0

## COc1cccc(CCCN2C(=O)NC(C)(C)C2O)c1 (centres undefined)
Mus musculus [12]
  Activity: 2
Mus musculus [7]
  Activity: 2
Mus musculus [14]
  Activity: 1

## CC1NC(=O)N(Cc2ccccc2)C1O (centres undefined)
Mus musculus [12]
  Activity: 2
Mus musculus [16]
  Activity: 1
Mus musculus [14]
  Activity: 1

## Cc1cn(-c2ccccc2)c(O)n1
Mus musculus [6]
  Activity: 1
Mus musculus [3]
  Activity: 0
Mus musculus [14]
  Activity: 1

## COc1ccc2c(c1)CCCN1C(=O)NC(C)(C)C21 (centres undefined)
Mus musculus [1]
  Activity: 0
Mus musculus [2]
  Activity: 0
Mus musculus [3]
  Activity: 0

## CN1C(=O)NC(c2ccccc2)C1=O (centres undefined)
Mus musculus [4]
  ED50: 75 mg/kg
Mus musculus [8]
  ED50: 26 mg/kg
Mus musculus [9]
  Activity: 3
Mus musculus [13]
  Activity: 3
[11]
  TD50: 271 mg/kg
Mus musculus [14]
  Activity: 1

## O=C1NC(c2ccccc2)C(=O)N1c1ccccc1 (centres undefined)
Mus musculus [1]
  Activity: 0
Mus musculus [2]
  Activity: 0
Mus musculus [3]
  Activity: 0

## CN1CC(c2ccccc2)NC1=O (centres undefined)
Mus musculus [10]
  Activity: 2
Mus musculus [12]
  Activity: 2
Mus musculus [16]
  Activity: 1

## CC1NC(=O)N(C)C1O (centres undefined)
Mus musculus [1]
  Activity: 0
Mus musculus [2]
  Activity: 0
Mus musculus [3]
  Activity: 0

## CCC1(c2ccccc2)NC(=O)N(C)C1=O (centres undefined) [MEPHENYTOIN]
Mus musculus [4]
  ED50: 61 mg/kg
Mus musculus [8]
  ED50: 31 mg/kg

## O=C1NCC(O)N1c1ccccc1 (centres undefined)
Mus musculus [1]
  Activity: 0
Mus musculus [2]
  Activity: 0
Mus musculus [3]
  Activity: 0

## O=C1CNC(=O)N1c1ccccc1
Mus musculus [6]
  Activity: 1
Mus musculus [2]
  Activity: 0
Mus musculus [3]
  Activity: 0

## CC1NC(=O)N(c2ccccc2)C1O (centres undefined)
Mus musculus [6]
  Activity: 1
Mus musculus [16]
  Activity: 1
Mus musculus [14]
  Activity: 1

## CN1C(=O)NCC1O (centres undefined)
Mus musculus [1]
  Activity: 0
Mus musculus [2]
  Activity: 0
Mus musculus [3]
  Activity: 0

## Cc1cn(C)c(O)n1
Mus musculus [1]
  Activity: 0
Mus musculus [2]
  Activity: 0
Mus musculus [3]
  Activity: 0

## O=C1NCC(O)N1Cc1ccccc1 (centres undefined)
Mus musculus [6]
  Activity: 1
Mus musculus [2]
  Activity: 0
Mus musculus [3]
  Activity: 0

## Cc1cn(C)c(=O)n1C
Mus musculus [1]
  Activity: 0
Mus musculus [2]
  Activity: 0
Mus musculus [3]
  Activity: 0

## COc1cc2c(cc1OC)C1N(CC2)C(=O)NC1(C)C (centres undefined)
Mus musculus [1]
  Activity: 0
Mus musculus [3]
  Activity: 0
Mus musculus [14]
  Activity: 1

## CC1(C)NC(=O)N(CCc2ccccc2)C1=O
Mus musculus [4]
  ED50: 110 mg/kg
Mus musculus [8]
  ED50: 130 mg/kg
Mus musculus [9]
  Activity: 3
Mus musculus [10]
  Activity: 2
Mus musculus [7]
  Activity: 2
[11]
  TD50: 243 mg/kg

## CC1(C)NC(=O)N(CCc2ccccc2)C1O (centres undefined)
Mus musculus [6]
  Activity: 1
Mus musculus [16]
  Activity: 1
Mus musculus [14]
  Activity: 1

## COc1cccc(CN2C(=O)NC(C)(C)C2=O)c1
Mus musculus [6]
  Activity: 1
Mus musculus [2]
  Activity: 0
Mus musculus [3]
  Activity: 0

## CC1(C)NC(=O)N2C=Cc3ccccc3C21 (centres undefined)
Mus musculus [10]
  Activity: 2
Mus musculus [12]
  Activity: 2
Mus musculus [7]
  Activity: 2

## CC1NC(=O)NC1=O (centres undefined)
Mus musculus [1]
  Activity: 0
Mus musculus [2]
  Activity: 0
Mus musculus [3]
  Activity: 0

## O=C1NC(c2ccccc2)C(O)N1c1ccccc1 (centres undefined)
Mus musculus [1]
  Activity: 0
Mus musculus [2]
  Activity: 0
Mus musculus [3]
  Activity: 0
